The record followed here is BindingDB's records for doi:10.1016/0960-894X(95)00507-P (Eli Lilly, 1995).

For the experiment, the target named is T1, Dimer of Gag-Pol polyprotein [489-587] (Human immunodeficiency virus 1, UniProt P12497).
T1 construct: 489-587
Put plainly: Protease Inhibition Assay. An excerpt:
In the presence of HIV-l protease, the substrate is rapidly cleaved into two parts. The biotinylated amino terminal fragment binds to the avidin Pandex beads while the FITC-containing carboxy1 terminal fragment is removed through the membrane.

A word on the IC50: it is the concentration needed to halve the response being measured. Compound `CC(C)[C@@H]1[C@H](OC(=O)N[C@@H](Cc2ccccc2)[C@H](O)CN2C[C@H]3CCCC[C@H]3CC2C(=O)NC(C)(C)C)CCS1(=O)=O` (stereo partly drawn) [(2R,3R)-1,1-dioxo-2-(propan-2-yl)--thiolan-3-yl N-[(2S,3R)-4-[(4aS,8aS)-3-(tert-butylcarbamoyl)-decahydroisoquinolin-2-yl]-3-hydroxy-1-phenylbutan-2-yl]carbamate] registered an IC50 of 4.3 nM.
`CC(C)[C@H]1SCC[C@H]1OC(=O)N[C@@H](Cc1ccccc1)[C@H](O)CN1C[C@H]2CCS[C@H]2CC1C(=O)NC(C)(C)C` (stereo partly drawn) [(2R,3R)-2-(propan-2-yl)thiolan-3-yl N-[(2S,3R)-4-[(3aR,7aS)-6-(tert-butylcarbamoyl)-octahydrothieno[3,2-c]pyridin-5-yl]-3-hydroxy-1-phenylbutan-2-yl]carbamate] gave an IC50 of 0.26 nM. This IC50 is about 17-fold lower than that of the compound before.
`CC(C)[C@H]1[C@@H](OC(=O)N[C@@H](CSc2ccccc2)[C@H](O)CN2C[C@H]3CCS[C@H]3CC2C(=O)NC(C)(C)C)CCS1(=O)=O` (stereo partly drawn) [(2S,3S)-1,1-dioxo-2-(propan-2-yl)--thiolan-3-yl N-[(2R,3R)-4-[(3aR,7aS)-6-(tert-butylcarbamoyl)-octahydrothieno[3,2-c]pyridin-5-yl]-3-hydroxy-1-(phenylsulfanyl)butan-2-yl]carbamate] yielded a half-maximal inhibitory concentration (IC50) of 0.95 nM.
Compound `C[C@@H]1OCC[C@@H]1OC(=O)N[C@@H](CSc1ccccc1)[C@H](O)CN1C[C@H]2CCS[C@H]2CC1C(=O)NC(C)(C)C` (stereo partly drawn) [(2S,3S)-2-methyloxolan-3-yl N-[(2R,3R)-4-[(3aR,7aS)-6-(tert-butylcarbamoyl)-octahydrothieno[3,2-c]pyridin-5-yl]-3-hydroxy-1-(phenylsulfanyl)butan-2-yl]carbamate] came in with an IC50 (pH 5.5, 22 °C) of 0.28 nM. This counts as sub-nanomolar.
The same measure, in the same setting: in the case of `CC(C)(C)NC(=O)C1C[C@@H]2SCC[C@@H]2CN1C[C@@H](O)[C@H](CSc1ccccc1)NC(=O)O[C@@H]1CCS(=O)(=O)C1` (some centres not stated) [hydroxyethylene isostere] it was 2 nM.
`CC(C)(C)NC(=O)C1C[C@@H]2SCC[C@@H]2CN1C[C@@H](O)[C@H](CSc1ccccc1)NC(=O)O[C@H]1CCS(=O)(=O)C1` (some centres not stated) [hydroxyethylene isostere] had a 50% inhibitory concentration (IC50) (pH 5.5, 22 °C) of 1.7 nM.
In turn, `CC(C)[C@@H]1SCC[C@@H]1OC(=O)N[C@@H](Cc1ccccc1)[C@H](O)CN1C[C@H]2CCS[C@H]2CC1C(=O)NC(C)(C)C` (some centres not stated) [hydroxyethylene isostere] showed a half-maximal inhibitory concentration (IC50) of 2.6 nM.
`CC(C)[C@@H]1[C@H](OC(=O)N[C@@H](CSc2ccccc2)[C@H](O)CN2C[C@H]3CCS[C@H]3CC2C(=O)NC(C)(C)C)CCS1(=O)=O` (some centres not stated) [hydroxyethylene isostere] showed a 50% inhibitory concentration (IC50) of 0.42 nM. Compared with the last compound, the IC50 is about 6.2-fold lower.
Still for that read-out and setting: the value for `CC(C)[C@@H]1[C@H](OC(=O)N[C@@H](Cc2ccccc2)[C@H](O)CN2C[C@H]3CCS[C@H]3CC2C(=O)NC(C)(C)C)CCS1(=O)=O` (some centres not stated) [hydroxyethylene isostere] was 1.3 nM.
`CC(C)[C@H]1[C@@H](OC(=O)N[C@@H](Cc2ccccc2)[C@H](O)CN2C[C@H]3CCCC[C@H]3CC2C(=O)NC(C)(C)C)CCS1(=O)=O` (some centres not stated) [hydroxyethylene isostere] registered a half-inhibitory concentration (IC50) (pH 5.5, 22 °C) of 8.1 nM. That is a single-digit nanomolar value.
As to `CC(C)[C@H]1[C@@H](OC(=O)N[C@@H](Cc2ccccc2)[C@H](O)CN2C[C@H]3CCS[C@H]3CC2C(=O)NC(C)(C)C)CCS1(=O)=O` (some centres not stated) [hydroxyethylene isostere], the IC50 was determined as 2.6 nM. This counts as single-digit nanomolar.
Where the note is “pH 5.5, 22 °C”, `C[C@@H]1[C@@H](OC(=O)N[C@@H](CSc2ccccc2)[C@H](O)CN2C[C@H]3CCS[C@H]3CC2C(=O)NC(C)(C)C)CCS1(=O)=O` (some centres not stated) [hydroxyethylene isostere] registered an IC50 of 5.2 nM.
On to `C[C@@H]1[C@H](OC(=O)N[C@@H](CSc2ccccc2)[C@H](O)CN2C[C@H]3CCS[C@H]3CC2C(=O)NC(C)(C)C)CCS1(=O)=O` (some centres not stated) [hydroxyethylene isostere], for which the 50% inhibitory concentration (IC50) (pH 5.5, 22 °C) worked out at 0.75 nM.
As to `C[C@@H]1[C@H](OC(=O)N[C@@H](Cc2ccccc2)[C@H](O)CN2C[C@H]3CCCC[C@H]3CC2C(=O)NC(C)(C)C)CCS1(=O)=O` (some centres not stated) [hydroxyethylene isostere], the half-inhibitory concentration (IC50) (pH 5.5, 22 °C) was 10 nM. Against the preceding compound, the IC50 is about 13-fold higher.
For the compound `C[C@H]1OCC[C@H]1OC(=O)N[C@@H](CSc1ccccc1)[C@H](O)CN1C[C@H]2CCS[C@H]2CC1C(=O)NC(C)(C)C` (some centres not stated) [hydroxyethylene isostere], half-maximal inhibition (pH 5.5, 22 °C) (IC50) required 3 nM.
Under “pH 5.5, 22 °C”, `C[C@H]1[C@@H](OC(=O)N[C@@H](CSc2ccccc2)[C@H](O)CN2C[C@H]3CCS[C@H]3CC2C(=O)NC(C)(C)C)CCS1(=O)=O` (some centres not stated) [hydroxyethylene isostere] gave a half-maximal inhibitory concentration (IC50) of 0.4 nM. This IC50 is about 7.5-fold lower than that of the compound before.
With `C[C@H]1[C@H](OC(=O)N[C@@H](CSc2ccccc2)[C@H](O)CN2C[C@H]3CCS[C@H]3CC2C(=O)NC(C)(C)C)CCS1(=O)=O` (some centres not stated) [hydroxyethylene isostere], the half-maximal inhibitory concentration (IC50) (pH 5.5, 22 °C) stood at 1.4 nM.
